The results in this text go back to ChEMBL document CHEMBL4396887, “Five-Membered N-Heterocyclic Scaffolds as Novel Amino Bioisosteres at γ-Aminobutyric Acid (GABA) Type A Receptors and GABA Transporters” (J Med Chem, 2019).

The target of experiment [1] is T1, Sodium- and chloride-dependent betaine transporter (Homo sapiens) (UniProt P48065).
T1 sequence (whole entry): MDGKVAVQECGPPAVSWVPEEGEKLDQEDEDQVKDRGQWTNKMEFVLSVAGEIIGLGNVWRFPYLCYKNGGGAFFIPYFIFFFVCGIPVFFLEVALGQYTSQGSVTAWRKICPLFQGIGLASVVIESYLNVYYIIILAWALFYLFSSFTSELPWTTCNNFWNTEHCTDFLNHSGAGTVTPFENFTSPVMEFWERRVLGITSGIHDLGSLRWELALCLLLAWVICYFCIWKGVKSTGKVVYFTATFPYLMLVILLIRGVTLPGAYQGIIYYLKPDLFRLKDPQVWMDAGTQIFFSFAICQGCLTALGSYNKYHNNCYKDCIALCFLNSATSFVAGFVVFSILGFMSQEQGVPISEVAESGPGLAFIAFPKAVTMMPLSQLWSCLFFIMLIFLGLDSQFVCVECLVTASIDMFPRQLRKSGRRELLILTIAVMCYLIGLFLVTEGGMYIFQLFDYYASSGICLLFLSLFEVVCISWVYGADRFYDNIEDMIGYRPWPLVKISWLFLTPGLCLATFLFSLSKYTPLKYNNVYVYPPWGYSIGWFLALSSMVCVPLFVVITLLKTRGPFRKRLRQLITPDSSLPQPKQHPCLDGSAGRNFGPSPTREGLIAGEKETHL
Kind of experiment: Inhibition of human BGT1 expressed in Flp-In CHO cells assessed as reduction in [3H]GABA uptake at 100 uM incubated for 3 mins by liquid scintillation counting method relative to control. It counts as cell-based.

In experiment [2] the target is T2, Sodium- and chloride-dependent GABA transporter 2 (Homo sapiens, UniProt Q9NSD5).
T2 sequence (Q9NSD5 whole entry): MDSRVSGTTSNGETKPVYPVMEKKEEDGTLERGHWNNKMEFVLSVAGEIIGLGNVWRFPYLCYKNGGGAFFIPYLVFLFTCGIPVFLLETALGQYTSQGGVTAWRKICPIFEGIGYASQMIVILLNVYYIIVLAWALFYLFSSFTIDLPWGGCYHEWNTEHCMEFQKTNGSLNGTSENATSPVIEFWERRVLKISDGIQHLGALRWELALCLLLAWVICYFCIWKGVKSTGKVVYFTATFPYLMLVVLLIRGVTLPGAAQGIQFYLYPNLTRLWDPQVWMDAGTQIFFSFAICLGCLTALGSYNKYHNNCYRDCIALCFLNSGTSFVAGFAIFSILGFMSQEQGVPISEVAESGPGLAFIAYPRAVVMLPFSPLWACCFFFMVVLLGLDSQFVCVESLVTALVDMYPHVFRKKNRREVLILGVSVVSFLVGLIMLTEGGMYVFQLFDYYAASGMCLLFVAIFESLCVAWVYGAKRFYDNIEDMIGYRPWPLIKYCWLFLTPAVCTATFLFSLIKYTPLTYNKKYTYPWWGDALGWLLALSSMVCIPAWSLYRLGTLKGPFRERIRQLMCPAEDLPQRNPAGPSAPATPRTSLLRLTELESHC
Description: Inhibition of human GAT2 expressed in Flp-In CHO cells assessed as reduction in [3H]GABA uptake incubated for 3 mins by liquid scintillation counting method. It counts as cell-based.

The target in experiment [3] is Gamma-aminobutyric acid receptor subunit rho-1 (Homo sapiens, UniProt P24046). Description: Agonist activity at recombinant human GABA-A rho-1 receptor transiently expressed in human tsA201 cells incubated for 30 mins and measured up to 90 secs by FMP dye based FLIPR membrane potential blue assay. Format: cell-based.
Sequence of Gamma-aminobutyric acid receptor subunit rho-1 (P24046 whole entry): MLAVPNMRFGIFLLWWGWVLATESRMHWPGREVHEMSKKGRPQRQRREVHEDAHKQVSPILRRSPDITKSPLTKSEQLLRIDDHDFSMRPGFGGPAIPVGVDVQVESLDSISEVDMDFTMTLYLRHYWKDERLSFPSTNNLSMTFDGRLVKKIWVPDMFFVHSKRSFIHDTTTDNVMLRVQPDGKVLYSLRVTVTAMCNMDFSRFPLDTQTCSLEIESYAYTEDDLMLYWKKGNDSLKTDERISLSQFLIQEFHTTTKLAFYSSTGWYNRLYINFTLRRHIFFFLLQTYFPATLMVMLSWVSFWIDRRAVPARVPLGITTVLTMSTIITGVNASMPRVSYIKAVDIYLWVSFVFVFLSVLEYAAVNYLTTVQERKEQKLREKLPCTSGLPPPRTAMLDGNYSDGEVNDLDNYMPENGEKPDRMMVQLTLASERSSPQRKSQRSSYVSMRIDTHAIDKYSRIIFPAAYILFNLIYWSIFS
Experiment [4] concerns the target GABA-A receptor; anion channel. Kind of experiment: Displacement of [3H]muscimol from GABA(A) receptor in Sprague-Dawley rat cortical synaptic membranes by liquid scintillation counting. On the technique in general: Displacement assays read how much labelled ligand stays bound in the presence of the test substance.
The target in experiment [5] is Sodium- and chloride-dependent GABA transporter 1 (Homo sapiens, UniProt P30531). Kind of experiment: Inhibition of human GAT1 expressed in Flp-In CHO cells assessed as reduction in [3H]GABA uptake at 100 uM incubated for 3 mins by liquid scintillation counting method relative to control. Format: cell-based.
Sequence of Sodium- and chloride-dependent GABA transporter 1 (P30531 whole entry, looked up): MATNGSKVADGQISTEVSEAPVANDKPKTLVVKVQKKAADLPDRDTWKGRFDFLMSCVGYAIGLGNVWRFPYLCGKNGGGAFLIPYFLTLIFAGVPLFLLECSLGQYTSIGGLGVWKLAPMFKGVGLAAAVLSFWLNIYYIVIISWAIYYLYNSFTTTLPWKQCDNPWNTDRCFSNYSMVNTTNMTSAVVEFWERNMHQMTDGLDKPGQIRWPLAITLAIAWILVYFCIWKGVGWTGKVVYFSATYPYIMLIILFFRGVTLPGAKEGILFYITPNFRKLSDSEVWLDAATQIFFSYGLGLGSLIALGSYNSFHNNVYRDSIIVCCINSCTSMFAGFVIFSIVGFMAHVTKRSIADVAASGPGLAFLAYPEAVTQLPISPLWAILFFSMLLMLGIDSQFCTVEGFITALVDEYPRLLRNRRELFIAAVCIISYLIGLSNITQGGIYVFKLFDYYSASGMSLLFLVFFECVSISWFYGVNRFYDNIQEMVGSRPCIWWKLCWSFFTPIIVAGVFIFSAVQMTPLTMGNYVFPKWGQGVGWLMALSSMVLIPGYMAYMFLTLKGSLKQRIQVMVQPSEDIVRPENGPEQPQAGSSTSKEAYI
Experiment [6] addresses T3, Sodium- and chloride-dependent betaine transporter (Homo sapiens, UniProt P48065).
T3 sequence (P48065 whole entry): T1 sequence (whole entry)
Kind of experiment: Inhibition of human BGT1 expressed in Flp-In CHO cells assessed as reduction in [3H]GABA uptake incubated for 3 mins by liquid scintillation counting method. Format: cell-based.

Experiment [7] has as its target T4, GABA-A receptor; alpha-1/beta-2/gamma-2 (Homo sapiens) (UniProt P14867+P47870+P18507). Kind of experiment: Agonist activity at recombinant human GABA-A alpha1beta2gamma2S receptor transiently expressed in human tsA201 cells assessed as GABA-induced maximum response incubated for 30 mins and measured up to 90 secs by FMP dye based FLIPR membrane potential blue assay relative to GABA. Format: cell-based.

Experiment [8] concerns the target Gamma-aminobutyric acid receptor subunit alpha-5/beta-2/gamma-2 (Homo sapiens) (UniProt P47870+P18507+P31644). Description: Agonist activity at recombinant human GABA-A alpha5beta2gamma2S receptor transiently expressed in human tsA201 cells assessed as GABA-induced maximum response incubated for 30 mins and measured up to 90 secs by FMP dye based FLIPR membrane potential blue assay relative to GABA. Format: cell-based.

The target of experiment [9] is Gamma-aminobutyric acid receptor subunit alpha-4/beta-2/gamma-2 (Homo sapiens, UniProt P47870+P18507+P48169). Kind of experiment: Agonist activity at recombinant human GABA-A alpha4beta2gamma2S receptor transiently expressed in human tsA201 cells assessed as GABA-induced maximum response incubated for 30 mins and measured up to 90 secs by FMP dye based FLIPR membrane potential blue assay relative to GABA. Format: cell-based.

Experiment [10] concerns the target T4, GABA-A receptor; alpha-1/beta-2/gamma-2 (Homo sapiens). Description: Agonist activity at recombinant human GABA-A alpha1beta2gamma2S receptor transiently expressed in human tsA201 cells incubated for 30 mins and measured up to 90 secs by FMP dye based FLIPR membrane potential blue assay. It counts as cell-based.
Experiment [11] deals with Gamma-aminobutyric acid receptor subunit alpha-4/beta-2/gamma-2 (Homo sapiens, UniProt P18507+P47870+P48169). Description: Agonist activity at recombinant human GABA-A alpha4beta2gamma2S receptor transiently expressed in human tsA201 cells incubated for 30 mins and measured up to 90 secs by FMP dye based FLIPR membrane potential blue assay. It counts as cell-based. Particulars: read-out: EC50.
Sequence of Gamma-aminobutyric acid receptor subunit alpha-4/beta-2/gamma-2 (Homo sapiens, UniProt P18507+P47870+P48169) (P47870 whole entry): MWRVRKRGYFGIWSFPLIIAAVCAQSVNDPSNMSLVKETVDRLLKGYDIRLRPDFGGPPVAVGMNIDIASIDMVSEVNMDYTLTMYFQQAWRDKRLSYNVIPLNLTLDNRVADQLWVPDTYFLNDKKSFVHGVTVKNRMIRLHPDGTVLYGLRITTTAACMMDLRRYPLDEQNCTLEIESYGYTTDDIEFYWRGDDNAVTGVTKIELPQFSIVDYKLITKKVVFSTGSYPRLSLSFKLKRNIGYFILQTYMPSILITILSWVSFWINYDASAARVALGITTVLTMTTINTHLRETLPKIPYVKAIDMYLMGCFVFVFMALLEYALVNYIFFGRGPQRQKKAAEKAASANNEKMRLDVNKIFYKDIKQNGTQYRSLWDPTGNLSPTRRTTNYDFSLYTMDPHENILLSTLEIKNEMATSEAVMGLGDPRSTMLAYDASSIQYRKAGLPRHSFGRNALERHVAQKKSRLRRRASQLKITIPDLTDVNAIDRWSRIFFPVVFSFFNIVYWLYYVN
Sequence of Gamma-aminobutyric acid receptor subunit alpha-4/beta-2/gamma-2 (Homo sapiens, UniProt P18507+P47870+P48169) (P18507 whole entry): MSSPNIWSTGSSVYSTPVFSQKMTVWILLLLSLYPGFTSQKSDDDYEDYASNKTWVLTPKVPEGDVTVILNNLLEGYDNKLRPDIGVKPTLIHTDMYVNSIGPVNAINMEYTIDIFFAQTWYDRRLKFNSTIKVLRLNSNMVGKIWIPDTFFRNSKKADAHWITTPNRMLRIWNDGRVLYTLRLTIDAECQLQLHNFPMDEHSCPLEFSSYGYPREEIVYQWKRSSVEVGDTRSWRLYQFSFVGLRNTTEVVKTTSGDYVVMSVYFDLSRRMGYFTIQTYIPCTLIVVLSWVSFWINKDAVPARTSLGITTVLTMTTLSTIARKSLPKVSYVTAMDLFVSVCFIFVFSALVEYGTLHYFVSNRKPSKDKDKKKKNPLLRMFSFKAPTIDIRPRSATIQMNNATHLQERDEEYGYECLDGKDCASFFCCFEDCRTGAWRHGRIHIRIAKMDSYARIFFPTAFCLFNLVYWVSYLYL
Sequence of Gamma-aminobutyric acid receptor subunit alpha-4/beta-2/gamma-2 (Homo sapiens, UniProt P18507+P47870+P48169) (P48169 whole entry): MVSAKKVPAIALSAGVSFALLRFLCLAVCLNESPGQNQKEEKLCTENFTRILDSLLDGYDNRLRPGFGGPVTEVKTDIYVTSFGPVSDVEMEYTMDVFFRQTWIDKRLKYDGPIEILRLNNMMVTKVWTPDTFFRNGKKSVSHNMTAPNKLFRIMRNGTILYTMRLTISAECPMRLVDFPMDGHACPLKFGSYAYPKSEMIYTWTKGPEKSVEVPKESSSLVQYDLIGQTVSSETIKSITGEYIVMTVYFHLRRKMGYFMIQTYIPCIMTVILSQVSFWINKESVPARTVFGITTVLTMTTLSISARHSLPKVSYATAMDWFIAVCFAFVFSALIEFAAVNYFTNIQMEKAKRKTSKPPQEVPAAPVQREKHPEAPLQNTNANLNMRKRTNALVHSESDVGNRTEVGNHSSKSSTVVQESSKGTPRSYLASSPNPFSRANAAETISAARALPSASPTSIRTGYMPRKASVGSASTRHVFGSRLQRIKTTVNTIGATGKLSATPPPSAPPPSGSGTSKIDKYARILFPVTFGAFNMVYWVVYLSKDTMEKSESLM

A further experiment in a line: cells. It counts as cell-based. Particulars: Homo sapiens, tsA201, 0.5 h.

Molecules are shown by their SMILES. Calls of active or inactive are those of the source. The calls are words filed in the database; no cut-off is given here. A value given as a limit tells only on which side of the number the result lay.

As usually defined, the inhibition is the change of the read-out against control, counted positive when it falls. A word on the Ki: it is the dissociation constant of the complex between target and ligand, obtained from inhibition or displacement. `O=C(O)C[C@@H]1CCNC1`: the inhibition in experiment [1] and in [5] was more than 30% throughout. For the same compound, the IC50 was 16 µM in [2], 5 µM in experiment [6] (read-out: IC50) and 3.98 µM in [6] (read-out: pIC50 (converted)). The EC50 entry in [3] was “Not Active”. Further, the pEC50 entry in experiment [3] and in experiment [10] was “inactive” throughout. The Ki in experiment [4] turned out to be 5.6 µM. Further, the Rmax result in experiment [7] and in experiment [9] was “inactive” each time. For the same compound, the Rmax in experiment [8] was found to be 86%.
By pKi is commonly meant the Ki on a negative log10 scale, so that one unit is a factor of ten. `CC(C(=O)O)C1CSC(N)=N1` (stereo in doubt; l-10b): the IC50 in experiment [2] is more than 100 µM. Further, the EC50 in experiment [3] (read-out: EC50) is 1.2 µM. In experiment [4], this compound showed an inhibitory constant (Ki) of 1.3 µM and a negative logarithm of the Ki (pKi) of 5.91. The IC50 in experiment [6] (read-out: IC50) is more than 100 µM.
`C[C@H]1SC(N)=N[C@@H]1CC(=O)O` (relative stereo): the inhibition in experiment [1] and in [5] was more than 30% each time. The IC50 in experiment [2] and in experiment [6] (read-out: IC50) was more than 100 µM in each case. For the same compound, in experiment [3], the EC50 result was “Not Active”. For the same compound, the pEC50 result in experiment [3] and in [10] was “inactive” throughout. The affinity in experiment [4] corresponds to a Ki of 12 µM. For the same compound, the pKi in experiment [4] is 4.96. Moreover, the Rmax entry in experiment [7] and in experiment [9] was “inactive” in each case. Further, in [8], the Rmax came to 90%.
For `O=C(O)CC1CNC=N1` (stereo not drawn), the inhibition in [1] and in experiment [5] was more than 30% each time. Further, the IC50 was 2.9 µM in [2] and 7.3 µM in [6] (read-out: IC50). In addition, the EC50 in experiment [3] (read-out: EC50) was 2.8 µM; in [11], 7.9 µM; in the experiment “cells” (read-out: EC50), 5.4 µM; in the experiment “cells” (read-out: pEC50 (converted)) it was 5.37 µM. For the same compound, the affinity in [4], expressed as Ki, was 0.09 µM. Besides, the Rmax in [7] was 1%; in experiment [8], 88%; in experiment [9], 74%.
Consider `C[C@@H](C(=O)O)[C@H]1CSC(N)=N1` (relative stereo), for which the inhibition in [1] and in experiment [5] was more than 30% throughout. Also, the IC50 in experiment [2] and in experiment [6] (read-out: IC50) was more than 100 µM in each case. In [4], the affinity corresponds to a Ki of 1.6 µM. Further, the Rmax is 59% in experiment [7] and 94% in experiment [8]. Besides, the EC50 in “cells” (read-out: EC50) was 17 µM; in “cells” (read-out: pEC50 (converted)) it was 16.6 µM. Further, the Rmax entry in experiment [9] was “inactive”.
For the compound `C[C@@H](C(=O)O)[C@@H]1CSC(N)=N1` (relative stereo), the inhibition in experiment [1] and in experiment [5] was more than 30% in each case. The IC50 in experiment [2] and in experiment [6] (read-out: IC50) was more than 100 µM throughout. The EC50 in experiment [3] (read-out: EC50) is 1.6 µM; in the experiment “cells” (read-out: EC50) it was 36 µM; in “cells” (read-out: pEC50 (converted)), 35.5 µM. In addition, the affinity in experiment [4] corresponds to a Ki of 0.29 µM. Also, the Rmax in experiment [7] turned out to be 22%; in experiment [8], 81%. For the same compound, in experiment [9], the Rmax result was “inactive”.
For `CC(C(=O)O)C1CSC(N)=N1` (stereo in doubt; l-10a), the IC50 in experiment [2] and in experiment [6] (read-out: IC50) was more than 100 µM throughout. The EC50 is 7.4 µM in [3] (read-out: EC50), 26 µM in [11], 30 µM in the experiment “cells” (read-out: EC50) and 30.2 µM in “cells” (read-out: pEC50 (converted)). In [4], this compound returned a Ki of 0.33 µM.
Turning to `NC1=NC(CC(=O)O)CN1` (stereo not drawn), the inhibition in [1] and in [5] was more than 30% throughout. Further, the IC50 in experiment [2] stood at 132 µM; in [6] (read-out: IC50), 3 µM. For the same compound, the EC50 was 3.8 µM in [3] (read-out: EC50), 14 µM in experiment [11], 12 µM in the experiment “cells” (read-out: EC50) and 11.5 µM in “cells” (read-out: pEC50 (converted)). The same compound yielded a Ki in experiment [4] of 0.45 µM. The compound further yielded a negative-log Ki (pKi) in experiment [4] of 6.37. The Rmax in experiment [7] was determined as 81%; in [8], 90%; in [9], 81%.
In the case of `NC1=NC(CC(=O)O)CS1` (stereo not drawn), the inhibition in [1] and in experiment [5] was more than 30% each time. For the same compound, the figures for the IC50 in experiment [2] and in [6] (read-out: IC50) were 79.1 µM and 47.4 µM, respectively. The EC50 in experiment [3] (read-out: EC50) is 6.5 µM; in experiment [11], 1.3 µM; in the experiment “cells” (read-out: EC50), 1.1 µM; in “cells” (read-out: pEC50 (converted)), 1.1 µM. For the same compound, the Ki in [4] was 0.11 µM. The Rmax in experiment [7] worked out at 86%; in experiment [8] it was 98%; in experiment [9], 93%.
Consider `C[C@@H]1SC(N)=N[C@@H]1CC(=O)O` (relative stereo), for which the inhibition in experiment [1] and in [5] was more than 30% in each case. Besides, the IC50 in [2] and in experiment [6] (read-out: IC50) was more than 100 µM each time. The inhibition constant (Ki) in experiment [4] turned out to be 5.5 µM. Moreover, the Rmax entry in [7] and in experiment [9] was “inactive” throughout. The Rmax in experiment [8] stood at 92%. Moreover, the results for the EC50 in “cells” (read-out: EC50) and in “cells” (read-out: pEC50 (converted)) were 54 µM and 55 µM, respectively. Further, the pEC50 entry in experiment [10] is “inactive”.
`O=C(O)C[C@H]1CCNC1`: the inhibition in [1] and in experiment [5] was more than 30% in each case. Also, the IC50 in [2] was 7.3 µM; in experiment [6] (read-out: IC50) it was 9.9 µM; in [6] (read-out: pIC50 (converted)) it was 7.94 µM. Also, the EC50 in [3] (read-out: EC50) was 8.4 µM; in experiment [11], 8.1 µM; in “cells” (read-out: EC50), 5.6 µM; in the experiment “cells” (read-out: pEC50 (converted)), 5.62 µM. Besides, in [4], the affinity corresponds to a Ki of 0.21 µM. For the same compound, the Rmax in experiment [7] stood at 93%; in experiment [8], 99%; in experiment [9] it was 94%.
